Entries after “also recorded” stand apart in the source; their conditions may differ.
Tests used:
[1] = system: PI3K pathway; assay: Plucked hair assay, PI3K Signature Score; type: cell-based, human; settings: CTO 8 hr and 24 hr; BEZ235 1 μM 24 hr
Experimental: (§1) Donor hairs were plucked from 5 male donor volunteers, immediately transferred to maintenance medium cultures and exposed to varying doses of CTO equivalent to […], 5 μM, and 10 μM carboxyamidotriazole (CAI). The cultures were either maintained for 8 hrs or 24 hrs. Controls were used, for example, Tarceva®. (EGFR inhibitor) at 1 μM and BEZ235 (PI3K inhibitor) at 1 μM for 24 hrs only. Once in culture hairs were collected at the specified periods for mRNA isolation or protein analysis to ensure quality control. Small amounts of RNA (about up to 500 ng) are extracted from the bulbs at the end of the anagen hairs. Representative cDNA was prepared from the RNA and gene expression levels determined by microarray analysis. Biotin labeling, fragmentation and hybridization to 048 Affymetrix U133 plus 2.0 array was done. […]

[2] = system: PI3K/mTOR pathway; assay: Plucked hair assay, PI3K/mTOR Signature Score; type: cell-based, human; settings: CTO 8 hr and 24 hr; BEZ235 1 μM 24 hr
Experimental: as §1

[3] = system: early growth response 1 gene product (EGR1); assay: Plucked hair assay, EGR1 expression; type: cell-based, human; settings: for EGR1 regulation: BEZ235 and Tarceva 1 μM, 24 hr
Experimental: Donor hairs were plucked from 5 male donor volunteers, immediately transferred to maintenance medium cultures and exposed to varying doses of CTO equivalent to 2 M, 5 μM, and 10 μM carboxyamidotriazole (CAI). The cultures were either maintained for 8 hrs or 24 hrs. Controls were used, for example, Tarceva®. (EGFR inhibitor) at 1 μM and BEZ235 (PI3K inhibitor) at 1 μM for 24 hrs only. Once in culture hairs were collected at the specified periods for mRNA isolation or protein analysis to ensure quality control. Small amounts of RNA (about up to 500 ng) are extracted from the bulbs at the end of the anagen hairs. Representative cDNA was prepared from the RNA and gene expression levels determined by microarray analysis. Biotin labeling, fragmentation and hybridization to 048 Affymetrix U133 plus 2.0 array was done. Bioinformatic analysis was done to identify CTO induced gene expression changes.

[4] = system: RAS pathway; assay: Plucked hair assay, RAS pathway Signature Score; type: cell-based, human; settings: different doses of CTO, 8 hr and 24 hr; most obvious at 8 hrs
Experimental: as §1

[5] = system: Growth Factor Signature (GFS) pathway; assay: Plucked hair assay, Growth Factor Signature Score; type: cell-based, human; settings: different doses of CTO, 8 hr and 24 hr; most obvious at 8 hrs
Experimental: as §1

[6] = system: MEK pathway; assay: Plucked hair assay, MEK Signature Score; type: cell-based, human; settings: all CTO treatments at 8 hrs and 24 hrs
Experimental: as §1

[7] = system: HDAC pathway; assay: Plucked hair assay, HDAC Signature Score; type: cell-based, human; settings: different doses of CTO, 8 hr and 24 hr
Experimental: as §1

[8] = system: NOTCH pathway; assay: Plucked hair assay, NOTCH Signature Score; type: cell-based, human; settings: different doses of CTO, 8 hr and 24 hr
Experimental: as §1

[9] = system: WNT β-catenin pathway; assay: Plucked hair assay, WNT β-catenin Signature Score; type: cell-based, human; settings: 24 hrs exposure to CTO
Experimental: as §1

[10] = system: HSP90 pathway; assay: Plucked hair assay, HSP90 Signature Score; type: cell-based, human; settings: different doses of CTO, 8 hr and 24 hr; dose dependent
Experimental: as §1

[11] = system: EGFR pathway; assay: Plucked hair assay, EGFR Signature Score; type: cell-based, human; settings: all doses of CTO and time points; Tarceva 1 μM 24 hr
Experimental: as §1

[12] = system: P53 pathway; assay: Plucked hair assay, P53 Signature Score; type: cell-based, human; settings: all doses of CTO, 8 hr and 24 hr
Experimental: as §1

[13] = system: CAI IPA pathway; assay: Plucked hair assay, CAI IPA Signature Score; type: cell-based, human; settings: different doses of CTO, 8 hr and 24 hr; except at 10 μM
Experimental: as §1, with “done. Bioinformatic analysis was done to identify CTO induced gene expression changes.” for “done.”

[14] = system: CAI Ex vivo pathway; assay: Plucked hair assay, CAI Ex vivo Signature Score; type: cell-based, human; settings: different doses of CTO, 8 hr and 24 hr; tissue specific direction of change
Experimental: as §1, with “done. Bioinformatic analysis was done to identify CTO induced gene expression changes.” for “done.”

[15] = system: non-voltage dependent calcium signaling genes; assay: Plucked hair assay, non-voltage dependent calcium signaling Signature Score; type: cell-based, human; settings: across CTO treatment; literature determined regulation and ANOVA determined set
Experimental: as §1, with “done. Bioinformatic analysis was done to identify CTO induced gene expression changes.” for “done.”

[16] = system: Canonical Calcium signaling; assay: Plucked hair assay, Canonical Calcium signaling Signature Score (KEGG and IPA); type: cell-based, human; settings: KEGG Calcium Signaling Pathway and IPA predicted regulation
Experimental: Canonical calcium signaling was analyzed using the KEGG Calcium Signaling Pathway and IPA to predict regulation of canonical calcium signaling. […] Using ANOVA to filter for informative genes (FDR<0.05 & 1.5) it was noted that suppression of canonical calcium genes occurred across CTO treatment, however this only represented 7/68 canonical pathway genes.
as §1, with “done. Bioinformatic analysis was done to identify CTO induced gene expression changes.” for “done.”

[17] = system: carcinoembryonic antigen-related cell adhesion molecule (CEACAM1); assay: Plucked hair assay, CEACAM1 expression; type: cell-based, human
Experimental: (§2) Donor hairs were plucked from 5 male donor volunteers, immediately transferred to maintenance medium cultures and exposed to varying doses of CTO equivalent to […], 5 μM, and 10 μM carboxyamidotriazole (CAI). The cultures were either maintained for 8 hrs or 24 hrs. Controls were used, for example, Tarceva®. (EGFR inhibitor) at 1 μM and BEZ235 (PI3K inhibitor) at 1 μM for 24 hrs only. Once in culture hairs were collected at the specified periods for mRNA isolation or protein analysis to ensure quality control. Small amounts of RNA (about up to 500 ng) are extracted from the bulbs at the end of the anagen hairs. Representative cDNA was prepared from the RNA and gene expression levels determined by microarray analysis. Biotin labeling, fragmentation and hybridization to 048 Affymetrix U133 plus 2.0 array was done. Bioinformatic analysis was done to identify CTO induced gene expression changes.

[18] = system: Dystonin; assay: Plucked hair assay, Dystonin expression; type: cell-based, human
Experimental: as §2

[19] = system: TGF-β signaling; assay: Plucked hair assay, TGF-β signaling; type: cell-based, human
Experimental: as §2

[20] = system: cancer patients with different tumor types; type: in vivo; settings: CTO given alone
Excerpt: Thus enormous efforts are directed to the development of molecular pharmacodynamics biomarkers of signaling outputs of CTO to design combinatorial regimens against molecular targets in different types of cancers. Current methods for assessing pathway activation in tumors involve the measurement of the drug targets, known oncogenes or known tumor suppressors. However, one pathway can be activated at multiple points so it is not feasible to assess pathway activation by evaluating just known cancer associated genes.

[21] = system: ex vivo cultured human anagen hairs; assay: Plucked hair biomarker platform: global transcriptional response by microarray (probe list, Table 1); settings: for transcriptional response (differential probes): CTO equivalent to 2, 5, 10 μM CAI, 8 hr and 24 hr, BEZ235 and Tarceva 1 μM, 24 hr

Cn1c(=O)n(-c2ccc(C(C)(C)C#N)cc2)c2c3cc(-c4cnc5ccccc5c4)ccc3ncc21 [BEZ235, reference compound]
PI3K signature [1]: Strong suppression
PI3K/mTOR signature [2]: Strong suppression
EGR1 regulation [3]: suppressed

NC(=O)c1nnn(Cc2cc(Cl)c(C(=O)c3ccc(Cl)cc3)c(Cl)c2)c1N.O=C(O)c1cc(=O)[nH]c(=O)[nH]1 [CTO, carboxyamidotriazole orotate]
RAS signature [4]: modest down regulation
Growth Factor signature (GFS) [5]: modest down regulation
MEKi signature [6]: strongly suppressed; also recorded: strong inhibition
HDAC signature [7]: strongly suppressed; also recorded: weak suppression
Notch signature [8]: no suppression; also recorded: no activity
WNT β-catenin signature [9]: modes suppression; also recorded: inhibitory at 24 hr
HSP90 signature [10]: strong suppression
EGFR signature [11]: strongly suppressed; also recorded: very strong suppression; also recorded: stronger than that in Tarceva® at all doses of CTO and time points
P53 signature [12]: stabilized; also recorded: induction; also recorded: induced
CAI signature (IPA, 29 genes) [13]: some suppression
IPA CAI list, ex vivo 14 gene set [14]: strong dose dependent suppression
non-voltage dependent calcium genes signature [15]: strongly suppressed; also recorded: strong suppression
canonical calcium signaling pathway signature [16]: No significant suppression
EGR1 up regulation ([3]; varying doses of CTO at 8 hr and 24 hrs): 6 fold
CEACAM1 regulation [17]: down regulated
Dystonin down regulation [18]: 60 fold
TGF-β signaling [19]: inhibited
tumor response ([20]; cancer patients with different genomic mutations): stable disease or partial response showing tumor shrinkage
safety and tolerability ([20]; cancer patients, maximum tolerated dose not determined): safe and tolerable
net result probes overlapping between the 8 hr and 24 hr lists ([21]; 442 unique annotated genes): 558
probes observed ([21]; 8 hours): 1440
probes observed ([21]; 24 hrs): 2961
transcriptional response (differential probes) [21]: differential probes increased in a dose related manner; also recorded: greatest effect transcriptionally
fold range of the overlapping probes ([21]; high dose CTO/24 hr): −75 to +33 fold

C#Cc1cccc(Nc2ncnc3cc(OCCOC)c(OCCOC)cc23)c1 [Tarceva®, erlotinib, reference compound]
EGR1 regulation [3]: suppressed
CEACAM1 regulation [17]: down regulated
transcriptional response (differential probes) [21]: less differential probes than CTO or BEZ235

— patent publication US10378059B2, “Methods and molecular pharmacodynamic biomarkers for multiple signaling pathways in response to carboxyamidotriazole orotate” (TACTICAL THERAPEUTICS, INC., priority 2013, dated 2019)
